Laboratory results as given in ChEMBL document CHEMBL1649513, “Population pharmacokinetics of acyclovir in children and young people with malignancy after administration of intravenous acyclovir or oral valacyclovir” (Antimicrob Agents Chemother, 2009).

Assays:
[1] = Bioavailability in immunocompromized children at […], po administered every 12 hrs; assay type: ADME, organism-based; details: human, in vivo
[2] = Bioavailability in children and young patient with malignancy; assay type: ADME, organism-based; details: human, in vivo

Nc1nc2c(ncn2COCCO)c(=O)[nH]1 [ACYCLOVIR]
bioavailability [1]: 48% | bioavailability [2]: 60%
